Experimental data reported in patent US20240239804A1, “FUROINDAZOLE DERIVATIVES AS ANTAGONISTS OR INHIBITORS OF GPR84” (Bayer Aktiengesellschaft, priority 2021, published 2024).

Biological target: T1, human GPR84 receptor (Homo sapiens, UniProt Q9NQS5)
T1 construct: frozen aliquots prepared by acCELLerate; host or cells: CHO-K1
Experiment: cAMP HTRF assay for identification of cellular GPR84 antagonists
Type: cell-based
Details: CHO-K1 cells stably expressing human GPR84; Forskolin plus agonist 6-OAU; cAMP HTRF readout; average or median values
From the text: cAMP HTRF® Assay for Identification of Cellular GPR84 Antagonists
By using a Homogenous Time-Resolved Fluorescence (HTRF®) based assay (#62AM5PEJ, Cisbio, Condolet, France) the inhibition of the Gi-coupled GPR84 receptor can be detected. CHO-K1 cells stably expressing human GPR84 receptor (purchased from DiscoveRx, now Eurofins) were used and treated with Forskolin (F6886, Sigma, Germany) to stimulate membrane adenylyl cyclases and thereby unspecific cAMP formation. Activation of the Gi-coupled GPR84 by a natural or small molecule agonist (e.g. 6-n-octyl aminouracile, inhouse) results in inhibition of cellular cAMP formation which can be released again by antagonists to this receptor. Detection and quantification of cellular cAMP levels in this HTRF assay is achieved by interaction between a fluorescent cAMP tracer (cAMP-d2) and an Eu-cryptate labelled anti-cAMP antibody. Following excitation at 337 nm this pairing allows for the generation of a fluorescence resonance energy transfer (FRET) between the partners and results in FRET induced emissions at 665 nm and 620 nm, the latter representing background signal by Eu-cryptate labelled anti-cAMP antibody. Maximal signal is obtained in the absence of any cellular cAMP (no competition for the binding of the tracer to the antibody). Given the combination of the Gi coupling properties of GPR84 and the competitive nature of the detection system agonist treatment should result in an increase in the HTRF signal due to lowered cAMP levels. Any signal decrease in the presence of Forskolin, agonist and compound are indicative of antagonist mediated abrogation of GPR84 signalling.
For the assay, frozen aliquots of CHO-K1 cells expressing hGPR84 (prepared by acCELLerate, Hamburg, Germany) were thawed and a cell suspension (1.67E+06 cells/mL) in assay media (Ham's F12 Nutrient Mix, Thermo Fisher Scientific, Waltham, USA; 5% fetal calf serum, Biomol, Hamburg, Germany) containing cAMP-d2 (dilution 1:20, supplied with the kit #62AM5PEJ, Cisbio, Condolet, France) was prepared. After recovery of cells for 20 minutes at 37° C., 3 μL/well cell suspension including cAMP-d2 were added to a pre-dispensed assay plate (Greiner Bio-One, Kremsmuenster, Austria) containing 50 nl/well test compound in 100% DMSO or 100% DMSO as control. This was followed by a 30 minute incubation step at room temperature. The stimulation time was started by addition of 2 μL/well assay media containing 2.5×EC80 agonist 6-OAU and 2.5×EC90 Forskolin (negative control: 2.5×EC90 Forskolin in assay media) and was continued for 30 minutes at room temperature. The reaction was stopped by addition of 3 μL/well lysis buffer containing cAMP Eu-Cryptate antibody (dilution 1:20) (both supplied with the kit #62AM5PEJ, Cisbio, Condolet, France). To enable complete lysis, plates were incubated for 60 minutes at room temperature before measurement in an HTRF reader, e.g. a PHERAstar (BMG Labtech, Ortenberg, Germany).
From the fluorescence emissions at 665 nm (FRET) and at 620 nm (background signal of Eu-cryptate) the ratio (emission at 665 nm divided by emission at 620 nm×10000) was calculated and the data were normalized (reaction without test compound, only 100% DMSO=0% inhibition; all other assay components except agonist=100% inhibition). For dose response testing on the same microtiter plate, compounds were tested at 11 different concentrations in the range of 20 μM to 0.07 nM (20 μM, 5.7 μM, 1.6 μM, 0.47 μM, 0.13 μM, 38 nM, 11 nM, 3.1 nM, 0.89 nM, 0.25 and 0.07 nM; dilution series prepared before the assay at the level of the 100-fold conc. stock solutions by serial 1:3.5 dilutions in 100% DMSO) in duplicate values for each concentration. IC50 values were calculated by 4-parameter fitting using a commercial software package (Genedata Screener, Basel, Switzerland).
Examples were tested in selected biological assays one or more times. […]

T1 sequence (Q9NQS5 whole entry): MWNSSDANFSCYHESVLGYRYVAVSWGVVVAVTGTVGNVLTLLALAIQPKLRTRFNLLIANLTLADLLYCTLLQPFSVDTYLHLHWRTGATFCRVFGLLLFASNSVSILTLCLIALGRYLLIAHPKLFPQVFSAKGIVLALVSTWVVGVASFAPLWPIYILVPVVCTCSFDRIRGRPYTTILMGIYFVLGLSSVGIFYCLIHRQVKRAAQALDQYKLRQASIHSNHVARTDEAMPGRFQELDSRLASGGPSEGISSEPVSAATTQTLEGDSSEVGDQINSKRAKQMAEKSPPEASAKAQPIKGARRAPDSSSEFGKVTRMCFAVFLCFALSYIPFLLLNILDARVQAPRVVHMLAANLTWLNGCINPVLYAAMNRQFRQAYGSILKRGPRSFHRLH

Row | IC50 | SMILES
1 | 1150 nM | Cc1c(C(=O)NCCN2CCC2)oc2c1-c1nn(Cc3ccccc3Cl)cc1CC2 [Example 14, N-[2-(azetidin-1-yl)ethyl]-2-[(2-chlorophenyl)methyl]-8-methyl-4,5-dihydro-2H-furo[2,3-g]indazole-7-carboxamide]
2 | 12300 nM | Cc1c(C(=O)N2CC(C)OC(C)C2)oc2c1-c1nn(Cc3ccc(Cl)cc3)cc1CC2 (centres unmarked) [Example 75, {2-[(4-chlorophenyl)methyl]-8-methyl-4,5-dihydro-2H-furo[2,3-g]indazol-7-yl}(2,6-dimethylmorpholin-4-yl)methanone]
3 | 240 nM | Cc1ccccc1Cn1cc2c(n1)-c1c(oc(C(=O)NCc3ccon3)c1C)CC2 [Example 8, 8-methyl-2-[(2-methylphenyl)methyl]-N-[(1,2-oxazol-3-yl)methyl]-4,5-dihydro-2H-furo[2,3-g]indazole-7-carboxamide]
4 | 4180 nM | Cc1c(C(=O)NCCN2CCOCC2)oc2c1-c1nn(Cc3ccc(Cl)cc3)cc1CC2 [Example 55, 2-[(4-chlorophenyl)methyl]-8-methyl-N-[2-(morpholin-4-yl)ethyl]-4,5-dihydro-2H-furo[2,3-g]indazole-7-carboxamide]
5 | 150 nM | Cc1c(C(=O)NCc2ccon2)oc2c1-c1nn(Cc3ccc(Cl)cc3)cc1CC2 [Example 27, 2-[(4-chlorophenyl)methyl]-8-methyl-N-[(1,2-oxazol-3-yl)methyl]-4,5-dihydro-2H-furo[2,3-g]indazole-7-carboxamide]
6 | 16100 nM | Cc1c(C(=O)NC2CCC(=O)NC2)oc2c1-c1nn(Cc3ccc(Cl)cc3)cc1CC2 (centres unmarked) [Example 81, 2-[(4-chlorophenyl)methyl]-8-methyl-N-(6-oxopiperidin-3-yl)-4,5-dihydro-2H-furo[2,3-g]indazole-7-carboxamide]
7 | 89 nM | Cc1c(C(=O)NCC2CCCO2)oc2c1-c1nn(Cc3ccc(Cl)cc3)cc1CC2 (single isomer, unassigned) [Example 21-2]
8 | 58 nM | Cc1c(C(=O)NCC2CCCO2)oc2c1-c1nn(Cc3ccc(Cl)cc3)cc1CC2 (racemic) [Example 21, 2-[(4-chlorophenyl)methyl]-8-methyl-N-[(2RS)-tetrahydrofuran-2-ylmethyl]-4,5-dihydro-2H-furo[2,3-g]indazole-7-carboxamide]
9 | 6150 nM | Cc1c(C(=O)NCC[S+](C)[O-])oc2c1-c1nn(Cc3ccc(Cl)cc3)cc1CC2 (centres unmarked) [Example 63, 2-[(4-chlorophenyl)methyl]-NV-[2-(methanesulfinyl)ethyl]-8-methyl-4,5-dihydro-2H-furo[2,3-g]indazole-7-carboxamide]
10 | 17100 nM | Cc1c(C(=O)NC(C)(C)C#N)oc2c1-c1nn(Cc3ccc(Cl)cc3)cc1CC2 [Example 86, 2-[(4-chlorophenyl)methyl]-N-(2-cyanopropan-2-yl)-8-methyl-4,5-dihydro-2H-furo[2,3-g]indazole-7-carboxamide]
11 | 74 nM | Cc1c(C(=O)NCC2CCCO2)oc2c1-c1nn(Cc3cccc(Cl)c3)cc1CC2 (racemic) [Example 15, 2-[(3-chlorophenyl)methyl]-8-methyl-N-[(2RS)-tetrahydrofuran-2-ylmethyl]-4,5-dihydro-2H-furo[2,3-g]indazole-7-carboxamide]
12 | 9960 nM | Cc1c(C(=O)N(C)Cc2ccco2)oc2c1-c1nn(Cc3ccc(Cl)cc3)cc1CC2 [Example 72, 2-[(4-chlorophenyl)methyl]-N-[(furan-2-yl)methyl]-N,8-dimethyl-4,5-dihydro-2H-furo[2,3-g]indazole-7-carboxamide]
13 | 210 nM | Cc1c(C(=O)NCc2nccs2)oc2c1-c1nn(Cc3ccc(Cl)cc3)cc1CC2 [Example 38, 2-[(4-chlorophenyl)methyl]-8-methyl-N-[(1,3-thiazol-2-yl)methyl]-4,5-dihydro-2H-furo[2,3-g]indazole-7-carboxamide]
14 | 630 nM | Cc1ccccc1Cn1cc2c(n1)-c1c(oc(C(=O)NCC3CCCN3)c1C)CC2 (single isomer, unassigned) [Example 7-2]
